The subject of the test is mouse fibroblast (L929 cells, IFO 50409). The test is described as follows: TNF-α-induced apoptosis (cell death) of L929 cells, crystal violet staining of living cells. Type of test: cell-based. The following applies: test compound final concentration 1 μM, 72 hours cultivation, relative to dexamethasone (final concentration 1.1 μM) = 100. As for the experimental part: Apoptosis (cell death) was induced by adding TNF-α to cells. The inhibitory activity of a test compound to this apoptosis was determined by using known dexamethasone having an apoptosis inhibitory activity as the standard.
Namely, 25 μl of a culture medium (PRMI-1640, produced by Nikken Seibutsu Igaku Kenkyusho, Japan) (containing 10 weight % of fetal bovine serum) was added to each well of a 96-well microplate. Then, added was 2 μl of a solution prepared by 20 volume fold dilution of dimethylformamide (in the case of Compound No. 16) or dimethylsulfoxide (in the case of Compound Nos. 2, 4, 6, 8, 13) solution of a test compound (concentration of the test compound: 1 mM) with the above culture medium.
Subsequently, 25 μl of a solution prepared by dissolving TNF-α (Genzyme, USA)(40 ng/ml culture medium) in the above culture medium, and 50 μl of a suspension (2×10^5 cells/ml) prepared by suspending mouse fibroblast (L929 cells, IFO 50409) in the above culture medium were added, and then cells were cultivated for 72 hours at 37° C. in the presence of 5% carbon dioxide in air. The final concentration of the test compound during cultivation was 1 μM.
After cultivation, the culture medium was removed from the wells by aspiration, and 50 μl of a 5% (w/v) crystal violet/70% (v/v) methanol solution was added to each well to pigment the living cells. Then the wells were washed and dried. The apoptosis inhibitory activity of the test compound was obtained by determining the optical density by using an absorptiometer [Microplate Reader Model 450, produced by Bio-Rad] at the wavelength of 570 nm.
While, the apoptosis inhibitory activity of dexamethasone was obtained in the same manner as above except that the above test compound (final concentration: 1 μM) was replaced by dexamethasone (final concentration: 1.1 μM).
Then, the apoptosis inhibitory activity of each test compounds (final concentration: 1 μM) was calculated when the apoptosis inhibitory activity of dexamethasone (final concentration: 1.1 μM) was 100.

These results are taken from US6555565B2, “Apoptosis inhibitor” (Takeda Chemical Industries, Ltd., priority 1997, dated 2003).

As to `Cc1oc(-c2ccccc2)nc1COc1ccc(CCCC2OC(=O)NC2=O)cc1` (stereo not drawn) [Compound No. 6, 5-[3-[4-(5-methyl-2-phenyl-4-oxazolylmethoxy]phenyl]propyl]-2,4-oxazolidinedione], the “Apoptosis inhibitory activity (%)” value is listed as 70%.
For `COc1cc(CCCC2OC(=O)NC2=O)ccc1OCc1nc(-c2ccco2)oc1C` (stereo not drawn) [Compound No. 4, 5-[3-[4-[2-(2-furyl)-5-methyl-4-oxazoly]methoxy]-3-methoxyphenyllpropyl]-2,4-oxazolidinedione] the value was 74%.
Regarding `Cn1nc(CCOc2ccc(CC3SC(=O)NC3=O)cc2)nc1-c1ccccc1` (stereo not drawn) [Compound No. 8, 5-[4-[2-(1-methyl-5-phenyl-1,2,4-triazol-3-yl)ethoxy]benzyl]-2,4-thiazolidinedione], the “Apoptosis inhibitory activity (%)” value turned out to be 70%.
Take `COc1cc(CCCC2OC(=O)NC2=O)ccc1OC(C)c1nc(-c2ccccc2)oc1C` (stereo not drawn) [Compound No. 16, 5-[3-[3-methoxy-4-[1-(5-methyl-2-phenyl-4-oxazolyl)ethoxy]phenyl]propyl]-2,4-oxazolidinedione]: the “Apoptosis inhibitory activity (%)” value is 71%.
`Cc1oc(-c2ccc3ccccc3c2)nc1CCOc1ccc(CCCC2OC(=O)NC2=O)cc1` (stereo not drawn) [Compound No. 2]: the “Apoptosis inhibitory activity (%)” value is reported as 70%.
As to `CN(CCOc1ccc(CC2SC(=O)NC2=O)cc1)c1ccccn1` (stereo not drawn) [Compound No. 13, 5-[[4-[2-(methyl-2-pyridylamino)ethoxy]phenyl]methyl]-2,4-thiazolidinedione, reference compound], the “Apoptosis inhibitory activity (%)” value was determined as 92%.
